{"source": "patent US12281122B1", "about": "“PI3K inhibitors” (Cogent Biosciences, Inc., priority 2023, dated 2025)", "key": {"[1]": {"tested_on": "SKBR3 (PI3Kα-Wild Type) cell line", "assay": "HTRF phospho-AKT(S473) cell assay in SKBR3 cells", "format": "cell-based, human", "details": "Homo sapiens, SK-BR-3; HTRF phospho-AKT(S473), SKBR3 (PI3Kα-Wild Type) cells, 2 hours compound incubation, PDGF-BB stimulated", "procedure,_shortened": "(§1)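 HTRF read-out of phospho-AKT(S473) in lysates gave IC50 values after 2 h compound exposure at 37° C. Dose series was 12 points at 1:3, topping at 5 μM for T47D and 10 μM for SKBR3. Only SKBR3 received 70 ng/ml PDGF-BB during the last 15 minutes.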"}, "[2]": {"tested_on": "T47D (PI3Kα-H1047R) cell line", "assay": "HTRF phospho-AKT(S473) cell assay in T47D cells", "format": "cell-based, human", "details": "Homo sapiens; HTRF phospho-AKT(S473), T47D (PI3Kα-H1047R) cells, 2 hours compound incubation", "procedure,_shortened": "as §1"}}, "data": [{"smiles": "Cc1cc([C@@H](C)Nc2ccc(Cl)nc2C(=O)NS(C)(=O)=O)c2nc(N3CCC[C@@H](c4cnccn4)C3)n(C)c(=O)c2c1", "note": "(relative stereo) [Compound 618, 6-chloro-3-(((R)-1-(3,6-dimethyl-4-oxo-2-((R*)-3-(pyrazin-2-yl)piperidin-1-yl)-3,4-dihydroquinazolin-8-yl)ethyl)amino)-N-(methylsulfonyl) picolinamide]", "values": [{"measurement": "IC50", "setting": "[1]", "value": "1000 to 5000", "unit": "nM"}, {"measurement": "IC50", "setting": "[2]", "value": "250 to 500", "unit": "nM"}]}, {"smiles": "Cc1cc([C@@H](C)Nc2ccc(Cl)nc2C(=O)NS(C)(=O)=O)c2nc(N3CCC[C@H](c4cnccn4)C3)n(C)c(=O)c2c1", "note": "(relative stereo) [Compound 619, 6-chloro-3-(((R)-1-(3,6-dimethyl-4-oxo-2-((R*)-3-(pyrazin-2-yl)piperidin-1-yl)-3,4-dihydroquinazolin-8-yl)ethyl)amino)-N-(methylsulfonyl) picolinamide]", "values": [{"measurement": "IC50", "setting": "[1]", "value": "≥ 5000", "unit": "nM"}, {"measurement": "IC50", "setting": "[2]", "value": "< 250", "unit": "nM"}]}, {"smiles": "Cc1cnc([C@H]2CCCN(c3nc4c([C@@H](C)Nc5ccc(Cl)nc5C(=O)NS(C)(=O)=O)cc(C)cc4c(=O)n3C)C2)nc1", "note": "(relative stereo) [Compound 621, 6-chloro-3-(((R)-1-(3,6-dimethyl-2-((R*)-3-(5-methylpyrimidin-2-yl)piperidin-1-yl)-4-oxo-3,4-dihydroquinazolin-8-yl)ethyl)amino)-N-(methylsulfonyl) picolinamide]", "values": [{"measurement": "IC50", "setting": "[1]", "value": "≥ 5000", "unit": "nM"}, {"measurement": "IC50", "setting": "[2]", "value": "500 to 1000", "unit": "nM"}]}, {"smiles": "Cc1cnc([C@@H]2CCCN(c3nc4c([C@@H](C)Nc5ccc(Cl)nc5C(=O)NS(C)(=O)=O)cc(C)cc4c(=O)n3C)C2)nc1", "note": "(relative stereo) [Compound 625, 6-chloro-3-(((R)-1-(3,6-dimethyl-2-((R*)-3-(5-methylpyrimidin-2-yl)piperidin-1-yl)-4-oxo-3,4-dihydroquinazolin-8-yl)ethyl)amino)-N-(methylsulfonyl) picolinamide]", "values": [{"measurement": "IC50", "setting": "[1]", "value": "≥ 5000", "unit": "nM"}, {"measurement": "IC50", "setting": "[2]", "value": "250 to 500", "unit": "nM"}]}, {"smiles": "Cc1cc([C@@H](C)Nc2ccc(Cl)nc2C(=O)NS(C)(=O)=O)c2nc(N3CCC[C@@H](c4cnc(C)nc4)C3)n(C)c(=O)c2c1", "note": "(relative stereo) [Compound 645, 6-chloro-3-(((R)-1-(3,6-dimethyl-2-((R*)-3-(2-methylpyrimidin-5-yl)piperidin-1-yl)-4-oxo-3,4-dihydroquinazolin-8-yl)ethyl)amino)-N-(methylsulfonyl) picolinamide]", "values": [{"measurement": "IC50", "setting": "[1]", "value": "≥ 5000", "unit": "nM"}, {"measurement": "IC50", "setting": "[2]", "value": "500 to 1000", "unit": "nM"}]}, {"smiles": "Cc1cc([C@@H](C)Nc2ccc(Cl)nc2C(=O)NS(C)(=O)=O)c2nc(N3CCC[C@H](c4cnc(C)nc4)C3)n(C)c(=O)c2c1", "note": "(relative stereo) [Compound 646, 6-chloro-3-(((R)-1-(3,6-dimethyl-2-((R*)-3-(2-methylpyrimidin-5-yl)piperidin-1-yl)-4-oxo-3,4-dihydroquinazolin-8-yl)ethyl)amino)-N-(methylsulfonyl) picolinamide]", "values": [{"measurement": "IC50", "setting": "[1]", "value": "≥ 5000", "unit": "nM"}, {"measurement": "IC50", "setting": "[2]", "value": "< 250", "unit": "nM"}]}, {"smiles": "Cc1cc([C@@H](C)Nc2ccc(Cl)nc2C(=O)NS(C)(=O)=O)c2nc(N3CCC[C@@H](c4nccc(C)n4)C3)n(C)c(=O)c2c1", "note": "(relative stereo) [Compound 647, 6-chloro-3-(((R)-1-(3,6-dimethyl-2-((R*)-3-(4-methylpyrimidin-2-yl)piperidin-1-yl)-4-oxo-3,4-dihydroquinazolin-8-yl)ethyl)amino)-N-(methylsulfonyl) picolinamide]", "values": [{"measurement": "IC50", "setting": "[1]", "value": "≥ 5000", "unit": "nM"}, {"measurement": "IC50", "setting": "[2]", "value": "250 to 500", "unit": "nM"}]}, {"smiles": "Cc1cc([C@@H](C)Nc2ccc(Cl)nc2C(=O)NS(C)(=O)=O)c2nc(N3CCC[C@H](c4nccc(C)n4)C3)n(C)c(=O)c2c1", "note": "(relative stereo) [Compound 648, 6-chloro-3-(((R)-1-(3,6-dimethyl-2-((R*)-3-(4-methylpyrimidin-2-yl)piperidin-1-yl)-4-oxo-3,4-dihydroquinazolin-8-yl)ethyl)amino)-N-(methylsulfonyl) picolinamide]", "values": [{"measurement": "IC50", "setting": "[1]", "value": "≥ 5000", "unit": "nM"}, {"measurement": "IC50", "setting": "[2]", "value": "1000 to 5000", "unit": "nM"}]}, {"smiles": "Cc1cc([C@@H](C)Nc2ccc(Cl)nc2C(=O)NS(C)(=O)=O)c2nc(N3CC[C@H](c4cnc(C)c(C#N)c4)C3)n(C)c(=O)c2c1", "note": "(relative stereo) [Compound 656, 6-chloro-3-(((R)-1-(2-((R*)-3-(5-cyano-6-methylpyridin-3-yl)pyrrolidin-1-yl)-3,6-dimethyl-4-oxo-3,4-dihydroquinazolin-8-yl)ethyl)amino)-N-(methylsulfonyl) picolinamide]", "values": [{"measurement": "IC50", "setting": "[1]", "value": "1000 to 5000", "unit": "nM"}, {"measurement": "IC50", "setting": "[2]", "value": "250 to 500", "unit": "nM"}]}, {"smiles": "Cc1cc([C@@H](C)Nc2ccc(Cl)nc2C(=O)NS(C)(=O)=O)c2nc(N3CC[C@@H](c4cnc(C)nc4)C3)n(C)c(=O)c2c1", "note": "(relative stereo) [Compound 657, 6-chloro-3-(((R)-1-(3,6-dimethyl-2-((R*)-3-(2-methylpyrimidin-5-yl)pyrrolidin-1-yl)-4-oxo-3,4-dihydroquinazolin-8-yl)ethyl)amino)-N-(methylsulfonyl) picolinamide]", "values": [{"measurement": "IC50", "setting": "[1]", "value": "≥ 5000", "unit": "nM"}, {"measurement": "IC50", "setting": "[2]", "value": "250 to 500", "unit": "nM"}]}, {"smiles": "Cc1cc([C@@H](C)Nc2ccc(Cl)nc2C(=O)NS(C)(=O)=O)c2nc(N3CC[C@H](c4cnc(C)nc4)C3)n(C)c(=O)c2c1", "note": "(relative stereo) [Compound 658, 6-chloro-3-(((R)-1-(3,6-dimethyl-2-((R*)-3-(2-methylpyrimidin-5-yl)pyrrolidin-1-yl)-4-oxo-3,4-dihydroquinazolin-8-yl)ethyl)amino)-N-(methylsulfonyl) picolinamide]", "values": [{"measurement": "IC50", "setting": "[1]", "value": "≥ 5000", "unit": "nM"}, {"measurement": "IC50", "setting": "[2]", "value": "500 to 1000", "unit": "nM"}]}, {"smiles": "Cc1cc([C@@H](C)Nc2ccc(Cl)nc2C(=O)NS(C)(=O)=O)c2nc(N3CC[C@@H](c4ccc(C)nc4)C3)n(C)c(=O)c2c1", "note": "(relative stereo) [Compound 659, 6-chloro-3-(((R)-1-(3,6-dimethyl-2-((R*)-3-(6-methylpyridin-3-yl)pyrrolidin-1-yl)-4-oxo-3,4-dihydroquinazolin-8-yl)ethyl)amino)-N-(methylsulfonyl) picolinamide]", "values": [{"measurement": "IC50", "setting": "[1]", "value": "1000 to 5000", "unit": "nM"}, {"measurement": "IC50", "setting": "[2]", "value": "< 250", "unit": "nM"}]}, {"smiles": "Cc1cc([C@@H](C)Nc2ccc(Cl)nc2C(=O)NS(C)(=O)=O)c2nc(N3CC[C@H](c4ccc(C)nc4)C3)n(C)c(=O)c2c1", "note": "(relative stereo) [Compound 660, 6-chloro-3-(((R)-1-(3,6-dimethyl-2-((R*)-3-(6-methylpyridin-3-yl)pyrrolidin-1-yl)-4-oxo-3,4-dihydroquinazolin-8-yl)ethyl)amino)-N-(methylsulfonyl) picolinamide]", "values": [{"measurement": "IC50", "setting": "[1]", "value": "≥ 5000", "unit": "nM"}, {"measurement": "IC50", "setting": "[2]", "value": "250 to 500", "unit": "nM"}]}, {"smiles": "Cc1cc([C@@H](C)Nc2ccc(Cl)nc2C(=O)NS(C)(=O)=O)c2nc(N3CC[C@H](Oc4ccc(F)cc4)C3)n(C)c(=O)c2c1", "note": "(relative stereo) [Compound 691, 6-chloro-3-(((R)-1-(2-((R*)-3-(4-fluorophenoxy)pyrrolidin-1-yl)-3,6-dimethyl-4-oxo-3,4-dihydroquinazolin-8-yl)ethyl)amino)-N-(methylsulfonyl) picolinamide]", "values": [{"measurement": "IC50", "setting": "[1]", "value": "≥ 5000", "unit": "nM"}, {"measurement": "IC50", "setting": "[2]", "value": "250 to 500", "unit": "nM"}]}, {"smiles": "Cc1cc([C@@H](C)Nc2ccc(Cl)nc2C(=O)NS(C)(=O)=O)c2nc(N3CCC[C@H](c4c[nH]nc4C)C3)n(C)c(=O)c2c1", "note": "(relative stereo) [Compound 703, 6-chloro-3-(((R)-1-(3,6-dimethyl-2-((R*)-3-(3-methyl-1H-pyrazol-4-yl)piperidin-1-yl)-4-oxo-3,4-dihydroquinazolin-8-yl)ethyl)amino)-N-(methylsulfonyl) picolinamide]", "values": [{"measurement": "IC50", "setting": "[1]", "value": "≥ 5000", "unit": "nM"}, {"measurement": "IC50", "setting": "[2]", "value": "250 to 500", "unit": "nM"}]}, {"smiles": "Cc1cc([C@@H](C)Nc2ccc(Cl)nc2C(=O)NS(C)(=O)=O)c2nc(N3C[C@H]4CC4(c4cnc(C)cn4)C3)n(C)c(=O)c2c1", "note": "(relative stereo) [Compound 749, 6-chloro-3-(((R)-1-(3,6-dimethyl-2-((1R*,5S*)-1-(5-methylpyrazin-2-yl)-3-azabicyclo[3.1.0]hexan-3-yl)-4-oxo-3,4-dihydroquinazolin-8-yl)ethyl)amino)-N-(methylsulfonyl) picolinamide]", "values": [{"measurement": "IC50", "setting": "[1]", "value": "≥ 5000", "unit": "nM"}, {"measurement": "IC50", "setting": "[2]", "value": "250 to 500", "unit": "nM"}]}, {"smiles": "Cc1cc([C@@H](C)Nc2ccc(Cl)nc2C(=O)NS(C)(=O)=O)c2nc(N3C[C@@H]4C[C@]4(c4cnc(C)cn4)C3)n(C)c(=O)c2c1", "note": "(relative stereo) [Compound 750, 6-chloro-3-(((R)-1-(3,6-dimethyl-2-((1R*,5R*)-1-(5-methylpyrazin-2-yl)-3-azabicyclo[3.1.0]hexan-3-yl)-4-oxo-3,4-dihydroquinazolin-8-yl)ethyl)amino)-N-(methylsulfonyl) picolinamide]", "values": [{"measurement": "IC50", "setting": "[1]", "value": "≥ 5000", "unit": "nM"}, {"measurement": "IC50", "setting": "[2]", "value": "250 to 500", "unit": "nM"}]}, {"smiles": "Cc1cc([C@@H](C)Nc2ccc(Cl)nc2C(=O)NS(C)(=O)=O)c2nc(N3C[C@H]4C[C@@]4(c4cnc(C)nc4)C3)n(C)c(=O)c2c1", "note": "(relative stereo) [Compound 751, 6-chloro-3-(((R)-1-(3,6-dimethyl-2-((1R*,5S*)-1-(2-methylpyrimidin-5-yl)-3-azabicyclo[3.1.0]hexan-3-yl)-4-oxo-3,4-dihydroquinazolin-8-yl)ethyl)amino)-N-(methylsulfonyl) picolinamide]", "values": [{"measurement": "IC50", "setting": "[1]", "value": "≥ 5000", "unit": "nM"}, {"measurement": "IC50", "setting": "[2]", "value": "250 to 500", "unit": "nM"}]}, {"smiles": "Cc1cc([C@@H](C)Nc2ccc(Cl)nc2C(=O)NS(C)(=O)=O)c2nc(N3C[C@@H]4CC4(c4cnc(C)nc4)C3)n(C)c(=O)c2c1", "note": "(relative stereo) [Compound 752, 6-chloro-3-(((R)-1-(3,6-dimethyl-2-((1R*,5R*)-1-(2-methylpyrimidin-5-yl)-3-azabicyclo[3.1.0]hexan-3-yl)-4-oxo-3,4-dihydroquinazolin-8-yl)ethyl)amino)-N-(methylsulfonyl) picolinamide]", "values": [{"measurement": "IC50", "setting": "[1]", "value": "≥ 5000", "unit": "nM"}, {"measurement": "IC50", "setting": "[2]", "value": "500 to 1000", "unit": "nM"}]}, {"smiles": "Cc1cc([C@@H](C)Nc2ccc(Cl)nc2C(=O)NS(C)(=O)=O)c2nc(N3C[C@@H]4C[C@H]3C[C@H]4c3nn(C)cc3F)n(C)c(=O)c2c1", "note": "(relative stereo) [Compound 761, 6-chloro-3-(((R)-1-(2-((1R*,4S*,5S*)-5-(4-fluoro-1-methyl-1H-pyrazol-3-yl)-2-azabicyclo[2.2.1]heptan-2-yl)-3,6-dimethyl-4-oxo-3,4-dihydroquinazolin-8-yl)ethyl)amino)-N-(methylsulfonyl) picolinamide]", "values": [{"measurement": "IC50", "setting": "[1]", "value": "1000 to 5000", "unit": "nM"}, {"measurement": "IC50", "setting": "[2]", "value": "250 to 500", "unit": "nM"}]}]}
